Here are results for 16 compounds from US7371555B2, “Polypeptides having α-H-α-amino acid amide racemase activity and nucleic acids encoding the same” (DSM IP Assets B.V., priority 2002, dated 2008).

The target of assay [1] is T1, α-amino-ε-caprolactam racemase from Achromobacter obae (Achromobacter obae, UniProt Q7M181).
T1 sequence (Q7M181 1-436): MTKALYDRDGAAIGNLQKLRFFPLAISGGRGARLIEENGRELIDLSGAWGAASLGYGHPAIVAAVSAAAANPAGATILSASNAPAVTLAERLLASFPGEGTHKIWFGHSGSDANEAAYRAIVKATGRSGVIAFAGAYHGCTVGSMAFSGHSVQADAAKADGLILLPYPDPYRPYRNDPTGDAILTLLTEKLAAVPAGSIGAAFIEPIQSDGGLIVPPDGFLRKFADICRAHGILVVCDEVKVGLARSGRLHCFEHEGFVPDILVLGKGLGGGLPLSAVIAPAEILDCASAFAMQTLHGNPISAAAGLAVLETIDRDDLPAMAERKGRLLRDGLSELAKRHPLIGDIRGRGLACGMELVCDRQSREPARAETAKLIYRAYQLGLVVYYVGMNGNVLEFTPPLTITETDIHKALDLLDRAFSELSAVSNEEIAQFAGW
The settings on record: even when an excess amount of enzyme was used; cited from earlier work.

In assay [2] the test system is partially purified α-H-α-amino acid amide racemase from O. anthropi IA. The assay is described as follows: Substrate specificity of the partially purified racemase (Example 8). Format: biochemical, Ochrobactrum anthropi IA. Further details: tested at 75 mM. The settings on record: relative to the activity towards L-leucine amide; pH 8.0, 37° C. The method, then:
The substrate specificity of the O. anthropi IA α-H-α-amino acid amide racemase was determined using the partially purified enzyme preparation obtained by the protocol described above. Reaction mixtures of 1 ml total volume were prepared by mixing 772 μl of 66.6 mM HEPES-NaOH, pH 8.0, 10 μl of 0.1 M dithiothreitol, 18 μl of a solution containing 20 mg/ml BSA and 1 mM pyridoxal-5-phosphate, and 100 μl of a 0.75 M substrate solution, pH 8.0. After equilibration for 5 minutes at 37° C., the reactions were started by the addition of 100 μl of the enzyme solution. Reaction mixtures were incubated at 37° C. without shaking. After regular time intervals, samples of 50 μl were taken and transferred into vials containing 950 μl of 1 M H3PO4 to stop the reaction. After sufficient dilution of the samples in 0.4 M borate buffer pH 9.4, the mixtures obtained were analyzed using HPLC to determine the exact concentrations of two amino acid amide enantiomers according to the method of Example 7.
Initial activity for the different substrates tested was calculated from the linear parts of the progress curves, in which the amount of the amino acid amide enantiomer formed (so with a stereochemistry opposite to the substrate molecule) was plotted against the reaction time.

The test system of assay [3] is E. coli DH10B/pOA(1)PLV49B10 cells containing the α-H-α-amino acid amide racemase gene from Ochrobactrum anthropi IA. The assay is described as follows: Racemase activity test with DL-leucine amide and whole E. coli cells (Example 6). The format is cell-based. The settings on record: Strain A. The method, then: To determine the activity of E. coli/pOA(1)PLV49B10 and the E. coli control, the above-mentioned cell pellets were thawed and resuspended to a total volume of 1 ml with 50 mM HEPES-NaOH buffer, pH 7.7. Then, reaction mixtures of 10 ml each were prepared containing 50 mM HEPES-NaOH buffer (pH 7.7), 10 μM pyridoxal-5-phosphate (PLP), 2.5 wt % of D-leucine amide, if applicable 20 mM of EDTA to suppress the E. coli amidase activity, and 0.5 ml of the E. coli/pOA(1)PLV49B10 and E. coli DH10B/pZErO-GFPuv-wrong-orientation cell suspensions or water (for chemical blanks). Reactions were started by the addition of the cells. Reaction mixtures were incubated at 30° C. and 175 rpm. Directly after addition of the cells (t=0 hours) and after 27 and 43 hours samples were taken in which the reaction was stopped by removal of the cells via centrifugation followed by 0.22 μM filtration. Finally, the filtered samples were stored at −20° C. until analysis by chiral HPLC as described below: • column: Sumichiral OA5000 from Sumika (150×4.6 mm I.D., 5μ)+guard column • eluent: 85 v/v % 2 mM CuSO4+15 v/v % methanol • flow: 1.0 ml/min. • column temp.: 40° C. • inj. volume: 5 μl • detection: fluorescence detection after post-column reaction with o-phthalaldehyde and 2-mercaptoethanol (wavelength ex=338 nm and em>420 nm)
The E. coli DH10B/pOA(1)PLV49B10 and E. coli DH10B/pZErO-GFPuv-wrong-orientation cell suspensions from Example 5 (Preparation of the cells) were used. To determine their activity towards racemic DL-leucine amide, identical reaction mixtures were prepared as in Example 5, except that 2.5 wt % of DL-leucine amide was used, EDTA was omitted in all reactions, and the reactions were started with […] of the cell suspensions. Samples were taken directly after the start of the reactions (t=0 hours) and after 8 and 24 hours.

Assay [4] has as its system α-H-α-amino acid amide racemase from Ochrobactrum anthropi IA. The assay is described as follows: Substrate specificity, CFE from E. coli TOP10/pKEC_AZAR_3 (Example 7). Format: biochemical. The settings on record: relative to the activity towards D-leucine amide; 75 mM substrate, 20 mM EDTA, pH 8.0, 37° C. The method, then:
Two pre-cultures of E. coli TOP10/pKEC_AZAR—3 (see Example 4) were prepared by inoculation of 2 erlenmeyer flasks with 100 ml of 2*TY medium (10 g/l Yeast extract, 16 g/l Tryptone, 5 g/l NaCl) containing 50 mg/l of kanamycin with 10 μl of a glycerol stock per flask. After overnight cultivation at 28° C. and 200 rpm, the pre-cultures were pooled, and subsequently used to inoculate 2 erlenmeyer flasks each containing 1 l of the same medium. Also these flasks were cultivated at 28° C. and 200 rpm for 16-18 h. Cells were harvested by centrifugation (15 min. at 6,200×g, 4° C.), washed with 20 mM HEPES-NaOH, pH 7.5, pooled, weighed, and resuspended in a solution containing 20 mM HEPES-NaOH, pH 7.5, 20 μM pyridoxal-5-phosphate, and 1.3 mM of dithiothreitol in a 1:3 ratio of wet weight cells to solution. Then, cells were disintegrated by 10 min. sonification with a Soniprep 150 of MSE operated at maximum amplitude using time intervals of 10 sec. (i.e., 10 sec. sonification, 10 sec. cooling) and cooling in ice/acetone. Particles were removed by centrifugation, after which sucrose was added to the cell free extract to a final concentration of 0.25 M. The resulting cell free extract (CFE) was stored in aliquots at −20° C. E. coli TOP10/pBAD/Myc-HisC (Invitrogen) cells were treated in exactly the same way and served as negative control.
The substrate specificity of the α-H-α-amino acid racemase from O. anthropi IA was determined by measuring the racemase activity of the above-mentioned CFE towards a number of enantiomerically pure amino acid amides. Each reaction mixture of 10 ml (including the CFE) contained 50 mM HEPES-NaOH, pH 8.0, 20 μM pyridoxal-5-phosphate, 0.4 mg/ml BSA, 1 mM dithiothreitol, 20 mM EDTA and 75 mM of one of the amino acid amides tested. Reactions were started by the addition of 1 ml of the thawed CFE of E. coli TOP10/pKEC_AZAR—3 or E. coli TOP10/pBAD/Myc-HisC (blank) and were incubated at 37° C. At regular time intervals samples of 1 ml were taken and transferred to vials containing 1 ml of 1M H3PO4 to stop the reaction. After sufficient dilution of the samples in 0.4 M borate buffer pH 9.4, the mixtures obtained were analyzed using HPLC to determine the exact concentrations of the two amino acid and two amino acid amide enantiomers according to the following method.
The initial activity for the different substrates tested was calculated from the linear parts of the progress curves, in which the conversion was plotted against the reaction time. Use of the linear part of the progress curves secured that only samples taken at time points at which the substrate concentration was still sufficiently high, were used for the calculations. The conversion was calculated by dividing the amount of amino acid and amino acid amide formed via the racemase reaction (so with the opposite stereochemistry compared to the substrate molecule) by the total amount of two amino acid enantiomers and the two amino acid amide enantiomers.

Assay [5] deals with lyophilized O. anthropi IA cells. The assay is described as follows: α-H-α-amino acid amide racemase activity of lyophilized O. anthropi IA cells. The settings on record: approximately 72 hours at 40° C., 10 times diluted reaction mixture. Format: biochemical, Ochrobactrum anthropi IA. The method, then: O. anthropi IA cells were cultivated in Medium A containing DL-α-amino-ε-caprolactam (2 g/l) as sole nitrogen source. After incubation at 28° C. and 200 rpm for three days (OD620 nm=4.7), cells were harvested by centrifugation, washed in 20 mM HEPES-NaOH buffer of pH 7.7 and lyophilized.
The assay mixture consisted of 10 mM HEPES-NaOH buffer (pH 7.7) containing toluene (2,5 v/v %), pyridoxal-5-phosphate (20 μM), D- or L-leucine amide (2.5 m %) and in some cases EDTA (20 mM). Per assay 150 mg of lyophilized cells were used. Chemical blanks (with the assay mixture without the O. anthropi IA cells) were used as a negative control. All reaction mixtures (including the blanks) were incubated for approximately 72 hours at 40° C. before the reaction was stopped by the addition of 9 volumes of 1 M H3PO4. Finally, the reaction mixtures were analyzed by HPLC to determine the concentrations of D- and L-leucine amide and of D- and L-leucine. o-Phthaldehyde in combination with D-3-mercapto-2-methylpropionic acid was used in this HPLC method as a chiral reagent for the enantioseparation of these amino compounds (Duchateau, et al., J. Chromatogr. (1992) 623:237-245).
In a number of reactions EDTA was added to inhibit L- and/or D-specific amidase(s) present in the O. anthropi IA cells.
Without EDTA, amidases convert the substrate and/or product α-H-α-amino acid amides into α-H-α-amino acids thereby preventing direct detection of the other α-H-α-amino acid amide enantiomer as racemization product. […] Formation of L-leucine from D-leucine amide could not be detected in the chemical blank.

Residues, ends and D or L forms follow the SMILES beside them.

On to `NC(=O)[C@@H](N)Cc1c[nH]c2ccccc12` [L-tryptophan amide], for which the “α-H-α-amino acid amide racemase activity” value in assay [1] was “no α-H-α-amino acid amide racemase activity was found”.
With `CC(C)[C@H](N)C(N)=O` [L-valine amide], the Rel. initial activity in assay [2] was determined as 4.5%.
As to `CC(C)[C@H](N)C(=O)NCC(=O)O` [L-valyl-glycine] (H-Val-Gly-OH), in assay [1], the “α-H-α-amino acid amide racemase activity” value is listed as “no α-H-α-amino acid amide racemase activity was found”.
As to `CC(C)CC(N)C(N)=O` (racemic) [DL-leucine amide], in assay [3] (incubation time 0 h), the D-leucine is on record as 0.001 wt %, the D-leucine amide stood at 1.19 wt %, the L-leucine is recorded as 0.003 wt % and the L-leucine amide was 1.25 wt %. In assay [3] (incubation time 8 h), this compound registered a D-leucine of 0.004 wt %, a D-leucine amide of 1.24 wt %, a L-leucine of 1.45 wt % and a L-leucine amide of 0.33 wt %. In assay [3] (incubation time 24 h), this compound had a D-leucine of 0.028 wt %, a D-leucine amide of 0.43 wt %, a L-leucine of 2.25 wt % and a L-leucine amide of 0.14 wt %.
On to `NC(=O)[C@@H](N)CO` [L-serine amide], for which the Rel. initial activity in assay [4] is recorded as 83%.
As for `NC(=O)[C@@H](N)Cc1ccccc1` [L-phenylalanineamide], the Rel. initial activity in assay [2] worked out at 4.5%.
In the case of `CC(C)C[C@H](N)C(=O)NCC(=O)O` [L-leucyl-glycine] (H-Leu-Gly-OH), the “α-H-α-amino acid amide racemase activity” value in assay [1] was “no α-H-α-amino acid amide racemase activity was found”.
As to `C[C@@H](N)C(N)=O` [D-alanine amide], in assay [4], the Rel. initial activity is given as 85%.
On to `CC(C)[C@H](N)C(=O)N[C@@H](C)C(=O)O` [L-valyl-L-alanine] (H-Val-Ala-OH), for which the “α-H-α-amino acid amide racemase activity” value in assay [1] is listed as “no α-H-α-amino acid amide racemase activity was found”.
Take `NC(=O)[C@H](N)c1ccccc1` [D-phenylglycineamide]: the Rel. initial activity in assay [2] is on record as 9.1%.
The same measure, in the same setting: for `C[C@H](N)C(N)=O` [L-alanine amide] the value was 350%.
Same read-out and setting: for `NC(=O)[C@H](N)CCCC1OCCO1` [D-2-amino-5-[1,3]dioxolan-2-yl-pentanoicacid amide] the value was 9.1%; for `C[C@H](O)[C@H](N)C(N)=O` [LL-threonine amide], 100%.
Same read-out and setting: for `CC[C@H](C)[C@H](N)C(N)=O` [LL-isoleucine amide] the value was 4.5%.
As for `CC(C)C[C@H](N)C(N)=O` [L-leucine amide], in assay [5] (with EDTA (20 mM)), the D-leucine is listed as 0.003 m %, the D-leucine amide was found to be 0.021 m %, the L-leucine was 0.058 m % and the L-leucine amide is recorded as 0.15 m %. In assay [5] (without EDTA), the D-leucine was found to be 0.001 m %, the D-leucine amide is on record as <0.001 m %, the L-leucine turned out to be 0.21 m % and the L-leucine amide is <0.001 m %. Moreover, the Rel. initial activity in assay [2] came out at 100%. Moreover, in assay [1], the “α-H-α-amino acid amide racemase activity” value was “no α-H-α-amino acid amide racemase activity was found”.
Regarding `CC(C)C[C@H](N)C(=O)N[C@@H](C)C(=O)O` [L-leucyl-L-alanine] (H-Leu-Ala-OH), the “α-H-α-amino acid amide racemase activity” value in assay [1] is on record as “no α-H-α-amino acid amide racemase activity was found”.
